Tests used:
HG23 cells = assay: Nonspecific cytotoxic effects in HG23 cells; type: cell-based; conditions: cytotoxic dose for 50% cell death (CC50), 1 to 100 μM, 48 h, CytoTox 96 kit and crystal violet staining, average of at least two determinations
NV 3CLpro = NV 3CLpro (Norwalk virus, UniProt Q83883); assay: FRET protease assay, NV 3CLpro; type: biochemical; conditions: for Activity against NV 3CLpro and in cell based assays (in words): summary of Table 1; for Fold less active than compounds 13/25: n-pentyl chain versus m-chlorophenyl
Chain of NV 3CLpro (Q83883 1101-1281): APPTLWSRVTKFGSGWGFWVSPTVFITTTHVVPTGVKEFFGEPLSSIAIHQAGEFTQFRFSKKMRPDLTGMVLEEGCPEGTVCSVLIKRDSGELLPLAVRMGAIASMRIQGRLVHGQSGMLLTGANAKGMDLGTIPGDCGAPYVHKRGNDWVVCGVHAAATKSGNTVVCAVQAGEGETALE

Structure (SMILES) | TC50 (EC50) (HG23 cells) | other results
CC(C)C[C@@H]1NC(=O)OC(c2cccc(Cl)c2)CCCCCONC(=O)CC[C@@H](C=O)NC1=O (single isomer, unassigned) [Compound 36A] | 68.3 µM | 
CC(C)C[C@@H]1NC(=O)OC(c2cccc(Cl)c2)CCCCCONC(=O)CC[C@@H](C=O)NC1=O (single isomer, unassigned) [Compound 36B] | 73.8 µM | 
O=C[C@@H]1CCC(=O)NCCCCCC(c2cccc(Cl)c2)OC(=O)N[C@@H](CC2CCCCC2)C(=O)N1 (stereo partly drawn) [14(major), (4S, 7S)-17-(3-Chlorophenyl)-4-(cyclohexylmethyl)-2,5,10-trioxo-1-oxa-3,6,11-triazacycloheptadecane-7-carbaldehyde] | 62.4 µM | 
O=C[C@@H]1CCC(=O)NCCCCCC(c2cccc(Cl)c2)OC(=O)N[C@@H](CC2CCCCC2)C(=O)N1 (stereo partly drawn) [14(minor), (4S, 7S)-17-(3-Chlorophenyl)-4-(cyclohexylmethyl)-2,5,10-trioxo-1-oxa-3,6,11-triazacycloheptadecane-7-carbaldehyde] | 45.3 µM | 
CC(C)C[C@@H]1NC(=O)OC(c2ccccc2)CCCCCNC(=O)CC[C@@H](C=O)NC1=O (stereo partly drawn) [Compound 11, (4S, 7S)-4-Isobutyl-2,5,10-trioxo-17-phenyl-1-oxa-3,6,11-triazacycloheptadecane-7-carbaldehyde] | >100 µM | 
CC(C)C[C@@H]1NC(=O)OC(Cc2ccccc2)CCCCCNC(=O)CC[C@@H](C=O)NC1=O (stereo partly drawn) [Compound 12, (4S, 7S)-17-Benzyl-4-isobutyl-2,5,10-trioxo-1-oxa-3,6,11-triazacycloheptadecane-7-carbaldehyde] | >100 µM | 
CC(C)C[C@@H]1NC(=O)OC(c2cccc(Cl)c2)CCCCCNC(=O)CC[C@@H](C=O)NC1=O (stereo partly drawn) [Compound 13, (4S, 7S)-17-(3-Chlorophenyl)-4-isobutyl-2,5,10-trioxo-1-oxa-3,6,11-triazacycloheptadecane-7-carbaldehyde] | >100 µM | 
CC(C)C[C@@H]1NC(=O)OC(c2cccc(Cl)c2)CCCCCCNC(=O)CC[C@@H](C=O)NC1=O (stereo partly drawn) [Compound 15, (4S, 7S)-18-(3-Chlorophenyl)-4-isobutyl-2,5,10-trioxo-1-oxa-3,6,11-triazacyclooctadecane-7-carbaldehyde] | 67.4 µM | 
C[C@@H]1NC(=O)OC(c2cccc(Cl)c2)CCCCCNC(=O)CC[C@@H](C=O)NC1=O (stereo partly drawn) [Compound 16, (4S, 7S)-17-(3-Chlorophenyl)-4-methyl-2,5,10-trioxo-1-oxa-3,6,11-triazacycloheptadecane-7-carbaldehyde] | >100 µM | 
C[C@@H]1NC(=O)OC(c2cccc(Cl)c2)CCCCCCNC(=O)CC[C@@H](C=O)NC1=O (stereo partly drawn) [Compound 17, (4S, 7S)-18-(3-Chlorophenyl)-4-methyl-2,5,10-trioxo-1-oxa-3,6,11-triazacyclooctadecane-7-carbaldehyde] | >100 µM | 
O=C[C@@H]1CCC(=O)NCCCCCC(c2cccc(Cl)c2)OC(=O)NC2(CCCCC2)C(=O)N1 (stereo partly drawn) [Compound 18, (20S)-10-(3-Chlorophenyl)-8,17,22-trioxo-9-oxa-7,16,21-triazaspiro[5.16]docosane-20-carbaldehyde] | 62.4 µM | Activity against NV 3CLpro and in cell based assays (in words) (NV 3CLpro): inactive
O=C[C@@H]1CCC(=O)NCCCCCCC(c2cccc(Cl)c2)OC(=O)NC2(CCCCC2)C(=O)N1 (stereo partly drawn) [Compound 19, (21S)-10-(3-Chlorophenyl)-8,18,23-trioxo-9-oxa-7,17,22-triazaspiro [5.17] tricosane-21-carbaldehyde] | 53.3 µM | Activity against NV 3CLpro and in cell based assays (in words) (NV 3CLpro): inactive
CC(C)C[C@@H]1NC(=O)OC(CCCc2ccccc2)CCCCCNC(=O)CC[C@@H](C=O)NC1=O (stereo partly drawn) [Compound 20, (4S, 7S)-4-Isobutyl-2,5,10-trioxo-17-(3-phenylpropyl)-1-oxa-3,6,11-triazacycloheptadecane-7-carbaldehyde] | 71.5 µM | 
CCCCCC1CCCCCNC(=O)CC[C@@H](C=O)NC(=O)[C@H](CC(C)C)NC(=O)O1 (stereo partly drawn) [Compound 21, (4S, 7S)-4-Isobutyl-2,5,10-trioxo-17-pentyl-1-oxa-3,6,11-triazacycloheptadecane-7-carbaldehyde] | 72.7 µM | Fold less active than compounds 13/25 (NV 3CLpro; Table 1): ~ 2 fold
CC(C)C[C@@H]1NC(=O)OC(Cc2ccccc2)CC/C=C/CNC(=O)CC[C@@H](C=O)NC1=O (stereo partly drawn) [Compound 23, (4S, 7S, E)-17-Benzyl-4-isobutyl-2,5,10-trioxo-1-oxa-3,6,11-triazacycloheptadec-13-ene-7-carbaldehyde] | >100 µM | Fold more potent than compound 12 (NV 3CLpro; unsaturated linker versus saturated linker, Table 1): ~ 2 fold
O=C[C@@H]1CCC(=O)NC/C=C/CCC(c2cccc(Cl)c2)OC(=O)N[C@@H](CC2CCCCC2)C(=O)N1 (stereo partly drawn) [Compound 24, (4S, 7S, E)-17-(3-Chlorophenyl)-4-(cyclohexylmethyl)-2,5,10-trioxo-1-oxa-3,6,11-triazacycloheptadec-13-ene-7-carbaldehyde] | 42.3 µM | 
CC(C)C[C@@H]1NC(=O)OC(c2cccc(Cl)c2)CCCCCNC(=O)CC[C@@H](C(O)S(=O)(=O)[O-])NC1=O.[Na+] (stereo partly drawn) [Compound 25, Sodium ((4S, 7S)-17-(3-chlorophenyl)-4-isobutyl-2,5,10-trioxo-1-oxa-3,6,11-triazacycloheptadecan-7-yl) (hydroxy) methanesulfonate] | >100 µM | 
O=C1CC[C@@H](C(O)S(=O)(=O)[O-])NC(=O)C2(CCCCC2)NC(=O)OC(c2cccc(Cl)c2)CCCCCN1.[Na+] (stereo partly drawn) [Compound 26, Sodium ((20S)-10-(3-chlorophenyl)-8,17,22-trioxo-9-oxa-7,16,21-triazaspiro [5.16]docosan-20-yl) (hydroxy) methanesulfonate] | 48.5 µM | Activity against NV 3CLpro and in cell based assays (in words) (NV 3CLpro): inactive
O=C1CC[C@@H](C(O)S(=O)(=O)[O-])NC(=O)C2(CCCCC2)NC(=O)OC(c2cccc(Cl)c2)CCCCCCN1.[Na+] (stereo partly drawn) [Compound 27, Sodium ((21S)-10-(3-chlorophenyl)-8,18,23-trioxo-9-oxa-7,17,22-triazaspiro[5.17]tricosan-21-yl) (hydroxy) methanesulfonate] | 46.6 µM | Activity against NV 3CLpro and in cell based assays (in words) (NV 3CLpro): inactive
CC(C)C[C@@H]1NC(=O)OC(CCCc2ccccc2)CCCCCNC(=O)CC[C@@H](C(O)S(=O)(=O)[O-])NC1=O.[Na+] (stereo partly drawn) [Compound 28, Sodium hydroxyl ((4S, 7S)-4-isobutyl-2,5,10-trioxo-17-(3-phenylpropyl)-1-oxa-3,6,11-triazacycloheptadecan-7-yl) methanesulfonate] | 69.2 µM | 
CCCCCC1CCCCCNC(=O)CC[C@@H](C(O)S(=O)(=O)[O-])NC(=O)[C@H](CC(C)C)NC(=O)O1.[Na+] (stereo partly drawn) [Compound 29, Sodium hydroxyl ((4S, 7S)-4-isobutyl-2,5,10-trioxo-17-pentyl-1-oxa-3,6,11-triazacycloheptadecan-7-yl) methanesulfonate] | 78.5 µM | Fold less active than compounds 13/25 (NV 3CLpro; Table 1): ~ 2 fold
CC(C)C[C@@H]1NC(=O)OC(c2cccc(Cl)c2)CCCCCNC(=O)CC[C@@H](C(=O)C(=O)NC2CC2)NC1=O (stereo partly drawn) [Compound 31, 2-((4S, 7S)-17-(3-Chlorophenyl)-4-isobutyl-2,5,10-trioxo-1-oxa-3,6,11-triazacycloheptadecan-7-yl)-N-cyclopropyl-2-oxoacetamide] | 53.1 µM | 

— publication PMC5296247 (European journal of medicinal chemistry, 2016)
